From patent EP0933350A1, “Tricyclic retinoids, methods for their production and use” (LIGAND PHARMACEUTICALS INCORPORATED, priority 1994, dated 1996)

Tests used:
RXRβ [1] = molecular target: T1, RXRβ (Mus musculus, UniProt P28704); assay: co-transfection assay (RAR/RXR agonist activity, luciferase reporter in CV-1 cells); type: cell-based; conditions: read-out: RXRβ Pot
T1 sequence (P28704 1-520): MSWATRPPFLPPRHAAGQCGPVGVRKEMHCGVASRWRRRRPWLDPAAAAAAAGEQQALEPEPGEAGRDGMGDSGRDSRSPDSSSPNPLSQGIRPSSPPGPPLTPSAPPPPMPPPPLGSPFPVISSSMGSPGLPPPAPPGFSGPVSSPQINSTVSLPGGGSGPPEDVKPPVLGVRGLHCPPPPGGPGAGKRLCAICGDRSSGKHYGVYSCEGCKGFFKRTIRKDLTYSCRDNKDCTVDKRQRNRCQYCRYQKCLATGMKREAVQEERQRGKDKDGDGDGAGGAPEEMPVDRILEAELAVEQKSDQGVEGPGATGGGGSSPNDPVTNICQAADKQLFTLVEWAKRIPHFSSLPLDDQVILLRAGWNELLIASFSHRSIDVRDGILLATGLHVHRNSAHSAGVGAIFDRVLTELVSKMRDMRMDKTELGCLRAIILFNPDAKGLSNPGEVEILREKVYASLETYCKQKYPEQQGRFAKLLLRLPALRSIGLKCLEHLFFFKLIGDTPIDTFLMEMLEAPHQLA

RARγ [2] = molecular target: T2, RARγ (Homo sapiens, UniProt P13631); assay: as above; type: cell-based; conditions: potency = EC50, agonist, 40 hours, read-out: RARγ Pot
T2 sequence (P13631 1-454): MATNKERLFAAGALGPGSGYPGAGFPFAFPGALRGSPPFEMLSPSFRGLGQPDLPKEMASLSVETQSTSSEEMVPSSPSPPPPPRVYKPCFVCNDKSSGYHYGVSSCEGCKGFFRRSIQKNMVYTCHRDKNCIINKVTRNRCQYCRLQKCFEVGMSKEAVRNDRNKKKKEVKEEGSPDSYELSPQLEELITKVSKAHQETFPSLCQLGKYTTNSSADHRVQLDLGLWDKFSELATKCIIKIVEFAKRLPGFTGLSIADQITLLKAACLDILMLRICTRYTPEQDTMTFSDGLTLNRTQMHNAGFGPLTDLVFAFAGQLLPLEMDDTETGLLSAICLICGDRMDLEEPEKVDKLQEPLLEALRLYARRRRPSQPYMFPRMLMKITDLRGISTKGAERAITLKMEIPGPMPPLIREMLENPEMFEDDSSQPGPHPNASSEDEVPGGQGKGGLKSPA

RARα [3] = molecular target: T3, RARα (Homo sapiens, UniProt P10276); assay: as above; type: cell-based; conditions: read-out: RARα Pot
T3 sequence (P10276 1-462): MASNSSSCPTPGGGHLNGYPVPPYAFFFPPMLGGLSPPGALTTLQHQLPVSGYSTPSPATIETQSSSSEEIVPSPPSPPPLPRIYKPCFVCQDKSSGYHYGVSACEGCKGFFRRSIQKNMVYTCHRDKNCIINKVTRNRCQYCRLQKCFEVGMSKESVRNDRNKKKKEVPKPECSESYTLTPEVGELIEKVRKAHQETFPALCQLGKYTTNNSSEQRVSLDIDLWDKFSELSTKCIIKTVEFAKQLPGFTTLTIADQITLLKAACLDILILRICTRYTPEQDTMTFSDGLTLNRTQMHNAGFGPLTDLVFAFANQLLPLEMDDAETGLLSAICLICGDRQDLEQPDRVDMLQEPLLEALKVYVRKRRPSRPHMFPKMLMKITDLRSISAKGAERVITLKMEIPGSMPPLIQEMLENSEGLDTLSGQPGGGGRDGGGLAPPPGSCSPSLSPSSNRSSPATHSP

RARβ [4] = molecular target: T4, RARβ (Homo sapiens, UniProt P10826); assay: as above; type: cell-based; conditions: potency = EC50, agonist, 40 hours, read-out: RARβ Pot
T4 sequence (P10826 1-448 isoform P10826-2): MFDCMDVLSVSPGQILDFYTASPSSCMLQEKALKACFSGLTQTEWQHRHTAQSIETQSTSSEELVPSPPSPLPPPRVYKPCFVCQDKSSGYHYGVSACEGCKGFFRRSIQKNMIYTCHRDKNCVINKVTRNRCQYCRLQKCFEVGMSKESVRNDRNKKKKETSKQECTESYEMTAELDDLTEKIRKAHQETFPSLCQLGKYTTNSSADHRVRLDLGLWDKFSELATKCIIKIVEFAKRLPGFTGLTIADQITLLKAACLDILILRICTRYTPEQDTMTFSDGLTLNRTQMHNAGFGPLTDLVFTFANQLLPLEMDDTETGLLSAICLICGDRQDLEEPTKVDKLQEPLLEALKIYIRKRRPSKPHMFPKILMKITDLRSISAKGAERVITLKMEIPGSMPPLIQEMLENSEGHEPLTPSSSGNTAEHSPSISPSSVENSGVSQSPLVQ

RXRγ [5] = molecular target: T5, RXRγ (Mus musculus, UniProt P28705); assay: as above; type: cell-based; conditions: read-out: RXRγ Pot
T5 sequence (P28705 1-463): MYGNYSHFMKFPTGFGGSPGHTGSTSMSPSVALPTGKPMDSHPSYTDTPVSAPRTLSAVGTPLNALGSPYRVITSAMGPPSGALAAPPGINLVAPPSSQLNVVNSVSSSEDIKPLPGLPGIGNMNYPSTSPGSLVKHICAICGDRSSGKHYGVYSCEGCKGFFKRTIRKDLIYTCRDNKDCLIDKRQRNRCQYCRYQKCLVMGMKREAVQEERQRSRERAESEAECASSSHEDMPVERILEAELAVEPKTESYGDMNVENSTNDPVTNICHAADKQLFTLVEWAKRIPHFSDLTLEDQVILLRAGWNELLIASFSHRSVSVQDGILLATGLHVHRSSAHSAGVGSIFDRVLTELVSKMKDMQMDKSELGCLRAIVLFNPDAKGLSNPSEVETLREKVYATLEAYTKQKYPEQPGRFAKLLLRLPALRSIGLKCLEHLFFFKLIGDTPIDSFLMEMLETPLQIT

RXRα [6] = molecular target: T6, RXRα (Homo sapiens, UniProt P19793); assay: as above; type: cell-based; conditions: read-out: RXRα Pot
T6 sequence (P19793 1-462): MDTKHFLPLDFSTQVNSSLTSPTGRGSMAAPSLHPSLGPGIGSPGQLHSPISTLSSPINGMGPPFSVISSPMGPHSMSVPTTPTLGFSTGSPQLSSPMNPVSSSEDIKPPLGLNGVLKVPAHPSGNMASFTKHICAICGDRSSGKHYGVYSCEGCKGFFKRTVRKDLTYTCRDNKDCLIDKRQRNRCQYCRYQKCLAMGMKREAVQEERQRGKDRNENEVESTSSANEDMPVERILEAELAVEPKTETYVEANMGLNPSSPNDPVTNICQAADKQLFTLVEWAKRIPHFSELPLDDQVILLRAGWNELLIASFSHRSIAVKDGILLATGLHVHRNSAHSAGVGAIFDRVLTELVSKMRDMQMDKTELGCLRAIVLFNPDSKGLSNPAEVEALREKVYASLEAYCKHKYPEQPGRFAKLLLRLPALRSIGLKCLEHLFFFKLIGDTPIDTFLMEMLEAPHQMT

RPMI 8226 cell line = assay: viability (tetrazolium dye, mitochondrial function); type: cell-based; conditions: Homo sapiens, 96 hours, read-out: MTS IC50
AML-193 cell line = assay: as above; type: cell-based; conditions: Homo sapiens, 96 hours, read-out: MTS IC50
ME 180 cell line = assay: as above; type: cell-based; conditions: Homo sapiens, 96 hours, read-out: MTS IC50
RXRβ [7] = molecular target: T1, RXRβ; assay: competitive binding of tritiated retinoids to retinoid receptors; conditions: competition with tritiated retinoid, Cheng-Prussof equation
RXRα [8] = molecular target: T6, RXRα; assay: as above; conditions: competition with tritiated retinoid, Cheng-Prussof equation
RARγ [9] = molecular target: T2, RARγ; assay: as above; conditions: competition with tritiated retinoid, Cheng-Prussof equation
RXRγ [10] = molecular target: T5, RXRγ; assay: as above; conditions: competition with tritiated retinoid, Cheng-Prussof equation
RARα [11] = molecular target: T3, RARα; assay: as above; conditions: competition with tritiated retinoid, Cheng-Prussof equation
RARβ [12] = molecular target: T7, RARβ (Homo sapiens, UniProt P10826); assay: as above; conditions: competition with tritiated retinoid, Cheng-Prussof equation
T7 sequence (P10826 1-455): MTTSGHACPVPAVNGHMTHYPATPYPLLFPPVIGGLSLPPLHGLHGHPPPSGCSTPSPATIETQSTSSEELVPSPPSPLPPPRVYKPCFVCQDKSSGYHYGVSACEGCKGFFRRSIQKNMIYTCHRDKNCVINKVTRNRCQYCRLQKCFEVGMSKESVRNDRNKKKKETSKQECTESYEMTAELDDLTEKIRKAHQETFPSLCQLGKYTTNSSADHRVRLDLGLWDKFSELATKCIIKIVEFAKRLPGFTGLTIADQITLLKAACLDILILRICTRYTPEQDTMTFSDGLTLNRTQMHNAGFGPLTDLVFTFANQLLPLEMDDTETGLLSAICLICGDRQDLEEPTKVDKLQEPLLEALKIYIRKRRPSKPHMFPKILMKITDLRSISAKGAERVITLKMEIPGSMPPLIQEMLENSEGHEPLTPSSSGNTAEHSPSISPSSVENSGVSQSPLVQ

SMILES	EC50 (RXRβ [1]) [nM]	EC50 (RARγ [2]) [nM]	EC50 (RARα [3]) [nM]	EC50 (RARβ [4]) [nM]	EC50 (RXRγ [5]) [nM]	EC50 (RXRα [6]) [nM]	Kd (RXRβ [7]) [nM]	Kd (RXRα [8]) [nM]	Kd (RARγ [9]) [nM]	Kd (RXRγ [10]) [nM]	Kd (RARα [11]) [nM]	Kd (RARβ [12]) [nM]	IC50 (RPMI 8226 cell line) [nM]	IC50 (AML-193 cell line) [nM]	IC50 (ME 180 cell line) [nM]
CC1=C(/C=C/C(C)=C/C=C/C(C)=C/C(=O)O)C(C)(C)CCC1 [ATRA, all-trans retinoic acid, reference compound]	–	–	–	–	–	–	–	–	–	–	–	–	756	1000	890
CC(/C=C/C(=O)N1CCc2cc3c(cc21)C(C)(C)CCC3(C)C)=C\C(=O)O [Compound 141b, (2E,4E)-3-Methyl-6-oxo-6-[(2,3,5,6,7,8-hexahydro-5,5,8,8-tetramethyl)benzo-[f]-indol-1-yl]hexa-2,4-dienoic acid]	> 10000	12	863	32	2930	> 10000	–	–	–	–	–	–	–	–	–
CC1(C)CCC(C)(C)c2cc3c(cc21)CCC/C3=N\Nc1ccc(C(=O)O)cc1 [Compound 152b, E-4-[N'-(5,5,8,8-tetramethyl-3,4,5,6,7,8-hexahydro-2H-anthracen-1-ylidene)-hydrazino]benzoic acid]	> 10000	32	651	8	> 10000	> 10000	–	–	–	–	–	–	–	–	–

Now from value to molecule, other results behind:

EC50 (RXRβ [1]) [nM]	EC50 (RARγ [2]) [nM]	EC50 (RARα [3]) [nM]	EC50 (RARβ [4]) [nM]	EC50 (RXRγ [5]) [nM]	EC50 (RXRα [6]) [nM]	Kd (RXRβ [7]) [nM]	Kd (RXRα [8]) [nM]	Kd (RARγ [9]) [nM]	Kd (RXRγ [10]) [nM]	Kd (RARα [11]) [nM]	Kd (RARβ [12]) [nM]	SMILES	IC50 (RPMI 8226 cell line) [nM]	IC50 (AML-193 cell line) [nM]	IC50 (ME 180 cell line) [nM]
37	94	101	33	26	38	–	–	–	–	–	–	CC(/C=C/CC1CCCc2cc3c(cc21)C(C)(C)CCC3(C)C)=C\C(=O)O (racemic) [Compound 124b, (2E,4E)-3-Methyl-6-(1,2,3,4,5,6,7,8-octahydro-5,5,8,8-tetramethylanthracen-1-yl)hexa-2,4-dienoic acid]	–	–	–
52	14	84	20	127	> 10000	–	–	–	–	–	–	CC(/C=C/C=C1/CCC(C)(C)c2cc3c(cc21)C(C)(C)CCC3(C)C)=C\C(=O)O [Compound 106b, (2E,4E)-3-Methyl-6-[(Z)-1,2,3,4,5,6,7,8-hexahydro-4,4,5,5,8,8-hexamethyl-2H-anthracen-1-ylidene]hexa-2,4-dienoic acid]	–	–	–
1980	47	1170	53	2530	2780	–	–	–	–	–	–	CC(/C=C/C=C1\CCc2c1ccc1c2C(C)(C)CCC1(C)C)=C\C(=O)O [Compound 135b, (2E,4E)-3-Methyl-6-[(E)-2,3,6,7,8,9-hexahydro-6,6,9,9-tetramethyl-1H-cyclopenta[a]naphthalen-3-ylidene]hexa-2,4-dienoic acid]	–	–	–
472	1880	> 10000	466	247	393	–	–	–	–	–	–	CC(/C=C/CN1CCCc2c1ccc1c2C(C)(C)CCC1(C)C)=C\C(=O)O [Compound 143b, (2E,4E)-3-Methyl-6-(1,2,3,4,7,8,9,10-octahydro-7,7,10,10-tetramethylbenzo[f]quinolin-4-yl)hexa-2,4-dienoic acid]	–	–	–
579	1	35	4	1470	–	548	433	8	724	6	4	CCN1CC\C(=C/C=C/C(C)=C/C(=O)O)c2cc3c(cc21)C(C)(C)CCC3(C)C [Compound 147b, (2E,4E)-3-methyl-6-[(E)1-ethyl-6,6,9,9-tetramethyl-2,3,6,7,8,9-hexahydro-1H-benzo[g]quinolin-4-ylidene]hexa-2,4-dienoic acid]	–	–	–
